This passage reports IC50 results from patent US20240343726A1, “PYRROLOPYRIDINE-3- AND 4-CARBOXAMIDE COMPOSITIONS AND METHODS FOR CELLULAR PROLIFERATION” (The Rockefeller University, priority 2021, published 2024).

The target of the experiment is LATS1 kinase (Homo sapiens (Human), UniProt O95835). The experiment can be described thus: LATS1 Biochemical HTRF Assay. The conditions noted are these: 2 mM ATP; read-out: LATS1_HTRF_2 mM ATP IC50. The protocol:
LATS1 Biochemical HTRF Assay
MgCl2 and [1 mM] DTT. 1× Enzymatic buffer diluted from 5× Enzymatic buffer*. Add 0.5 μL of 20× compound in 100% DMSO. […] MgCl2, [1 mM] DTIT and [5 mg/mL] BSA. 5×ERR prepared from 5× Enzymatic buffer with [25 mg/mL] BSA. Mix plate on plate shaker set at 1,350 rpm for 30 seconds, then centrifuge plate at 1,000 rpm for 1 minute. Incubate for 30 minutes at 25° C. on plate shaker set to 500 rpm. […] STK Substrate 1-biotin* then add 2 μL [10 mM] ATP. Mix plate on plate shaker set at 1,350 rpm for 30 seconds, then centrifuge plate at 1,000 rpm for 1 minute. Incubate for 40 minutes at 25° C. on plate shaker set to 500 rpm. […] Streptavidin-XL665 with 1×STK Antibody-Cryptate*. Mix plate on plate shaker set at 1,350 rpm for 30 seconds, then centrifuge plate at 1,000 rpm for 1 minute. Incubate for 60 minutes at 25° C. on plate shaker set to 500 rpm, covered from light.
*(Included in Cisbio KinEASE-STK Si HTRF Kit: 62ST1PEC)
On the technique in general: Time-resolved FRET reads energy transfer from a long-lived donor to a nearby acceptor.

Chain of LATS1 kinase (O95835 589-1130): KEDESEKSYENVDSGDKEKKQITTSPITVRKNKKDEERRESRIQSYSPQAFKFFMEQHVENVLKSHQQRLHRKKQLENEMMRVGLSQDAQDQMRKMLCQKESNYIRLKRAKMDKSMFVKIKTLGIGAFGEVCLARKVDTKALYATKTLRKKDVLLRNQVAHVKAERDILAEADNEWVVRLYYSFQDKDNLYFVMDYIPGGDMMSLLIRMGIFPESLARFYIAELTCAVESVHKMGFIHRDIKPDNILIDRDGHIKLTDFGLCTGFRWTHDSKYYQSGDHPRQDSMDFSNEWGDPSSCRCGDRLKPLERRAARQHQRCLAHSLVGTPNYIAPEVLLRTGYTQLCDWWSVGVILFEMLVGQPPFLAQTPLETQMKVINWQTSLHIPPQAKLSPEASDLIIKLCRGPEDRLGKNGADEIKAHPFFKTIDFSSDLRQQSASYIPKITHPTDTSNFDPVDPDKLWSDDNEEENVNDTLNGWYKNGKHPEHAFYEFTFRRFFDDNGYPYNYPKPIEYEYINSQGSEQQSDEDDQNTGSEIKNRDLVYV

A word on the IC50: it is the concentration at which inhibition is half-maximal. In the case of `CNC(=O)C1CS/C(=N\C(=O)c2c[nH]c3ncccc23)N1c1ccccc1` (stereo not shown) [Example 15, (Z)-2-((1H-pyrrolo[2,3-b]pyridine-3-carbonyl)imino)-N-methyl-3-phenylthiazolidine-4-carboxamide], the IC50 is 7.9 nM.

On to `CN(C)C(=O)CN1CCS/C1=N\C(=O)c1c[nH]c2ncccc12` [Example 18], for which the IC50 was determined as 500 nM.

For `O=C(/N=C1\SCC2CCCCN12)c1c[nH]c2ncccc12` (stereo not shown) [Example 21], the IC50 amounted to 3780 nM.

On to `O=C(/N=C1\SCC2CNCCN12)c1c[nH]c2ncccc12` (stereo not shown) [Example 22, (Z)—N-(hexahydro-3H-thiazolo[3,4-a]pyrazin-3-ylidene)-1H-pyrrolo[2,3-b]pyridine-3-carboxamide], for which the IC50 came to 2130 nM.

As for `O=C(/N=C1\SCC(=O)N1c1ccccc1)c1c[nH]c2ncccc12` [Example 23], the IC50 was 224 nM.

Regarding `O=C(/N=C1\SCCCN1c1ccccc1)c1ccnc2[nH]ccc12` [Example 29], the IC50 amounted to 1380 nM.

With `CC(=O)N1CCC(N2CCCS/C2=N\C(=O)c2c[nH]c3ncccc23)CC1` [Example 31], the IC50 was 2750 nM.

As to `CC1(C)CS/C(=N\C(=O)c2c[nH]c3ncccc23)N(C2CCCCC2)C1` [Example 33], the IC50 came out at 4440 nM.

Regarding `CN(C)C(=O)CN1CCCS/C1=N\C(=O)c1c[nH]c2ncccc12` [Example 37, (Z)—N-(3-(2-(Dimethylamino)-2-oxoethyl)-1,3-thiazinan-2-ylidene)-1H-pyrrolo[2,3-b]pyridine-3-carboxamide], the half-inhibitory concentration (IC50) amounted to 1680 nM.

On to `O=C(/N=c1\sccc(=O)n1-c1ccccc1)c1c[nH]c2ncccc12` [Example 38], for which the IC50 was 650 nM.

Consider `O=C(/N=C1\SCCCCN1Cc1ccccc1)c1c[nH]c2ncccc12` [Example 39, (Z)—N-(3-benzyl-1,3-thiazepan-2-ylidene)-1H-pyrrolo[2,3-b]pyridine-3-carboxamide], for which the IC50 was found to be 270 nM.

As for `O=C(/N=C1\SCCCCN1c1ccccc1)c1c[nH]c2ncccc12` [Example 40, (Z)—N-(3-phenyl-1,3-thiazepan-2-ylidene)-1H-pyrrolo[2,3-b]pyridine-3-carboxamide], the IC50 is 220 nM.

For `Cc1ccccc1-n1ccs/c1=N\C(=O)c1ccnc2[nH]ccc12` [Example 42], the IC50 came out at 33 nM.

Consider `O=C(/N=c1\sccn1-c1cccc(Cl)c1)c1ccnc2[nH]ccc12` [Example 43], for which the IC50 came out at 1670 nM.

On to `O=C(/N=c1\sccn1-c1ccc(Cl)cc1)c1ccnc2[nH]ccc12` [Example 44], for which the IC50 amounted to 360 nM.

In the case of `COc1ccccc1-n1ccs/c1=N\C(=O)c1ccnc2[nH]ccc12` [Example 46], the IC50 was found to be 1770 nM.

As for `CCc1ccccc1-n1ccs/c1=N\C(=O)c1ccnc2[nH]ccc12` [Example 47], the 50% inhibitory concentration (IC50) stood at 765 nM.

For `O=C(/N=c1\sccn1-c1ccccc1C(F)(F)F)c1ccnc2[nH]ccc12` [Example 48], the IC50 amounted to 1230 nM.

Regarding `O=C(/N=c1\sccn1C1CCCCC1)c1ccnc2[nH]ccc12` [Example 49], the IC50 turned out to be 505 nM.

Regarding `O=C(/N=c1\sccn1-c1ccc(CO)cc1Cl)c1ccnc2[nH]ccc12` [Example 50], the concentration for half-maximal inhibition (IC50) was found to be 2060 nM.

In the case of `Cc1cs/c(=N\C(=O)c2ccnc3[nH]ccc23)n1C1CCCCC1` [Example 51], the IC50 is 31 nM.

For the compound `Cc1cs/c(=N\C(=O)c2ccnc3[nH]ccc23)n1CC1CCCCC1` [Example 52], the IC50 amounted to 12 nM.

With `Cc1cs/c(=N\C(=O)c2ccnc3[nH]ccc23)n1Cc1ccccc1` [Example 53], the IC50 came to 220 nM.

Consider `O=C(/N=c1\scc(CO)n1Cc1ccccc1)c1ccnc2[nH]ccc12` [Example 54, (Z)—N-(3-benzyl-4-(hydroxymethyl)thiazol-2(3H)-ylidene)-1H-pyrrolo[2,3-b]pyridine-4-carboxamide], for which the IC50 came to 180 nM.

Consider `O=C(/N=c1\scc(CO)n1-c1ccccc1Cl)c1ccnc2[nH]ccc12` [Example 55, (Z)—N-(3-(2-chlorophenyl)-4-(hydroxymethyl)thiazol-2(3H)-ylidene)-1H-pyrrolo[2,3-b]pyridine-4-carboxamide], for which the IC50 was 68 nM.

On to `CN(C)C(=O)c1cs/c(=N\C(=O)c2ccnc3[nH]ccc23)n1-c1ccccc1Cl` [Example 56], for which the IC50 came to 2780 nM.

Take `CN(C)CCNC(=O)c1cs/c(=N\C(=O)c2ccnc3[nH]ccc23)n1Cc1ccccc1` [Example 57, (Z)-2-((1H-pyrrolo[2,3-b]pyridine-4-carbonyl)imino)-3-benzyl-N-(2-(dimethylamino)ethyl)-2,3-dihydrothiazole-4-carboxamide]: the IC50 came out at 460 nM.

As for `CN(C)Cc1cs/c(=N\C(=O)c2ccnc3[nH]ccc23)n1-c1ccccc1Cl` [Example 59, (Z)—N-(3-(2-chlorophenyl)-4-((dimethylamino)methyl)thiazol-2(3H)-ylidene)-1H-pyrrolo[2,3-b]pyridine-4-carboxamide], the IC50 came out at 215 nM.

Regarding `CC(=O)NCc1cs/c(=N\C(=O)c2ccnc3[nH]ccc23)n1-c1ccccc1Cl` [Example 60, (Z)—N-(4-(acetamidomethyl)-3-(2-chlorophenyl)thiazol-2(3H)-ylidene)-1H-pyrrolo[2,3-b]pyridine-4-carboxamide], the IC50 was 330 nM.

Regarding `Cc1cn(-c2ccccc2Cl)/c(=N/C(=O)c2ccnc3[nH]ccc23)s1` [Example 61], the IC50 came out at 1230 nM.

Take `O=C(/N=c1\sc(CO)cn1Cc1ccccc1)c1ccnc2[nH]ccc12` [Example 62, (Z)—N-(3-benzyl-5-(hydroxymethyl)thiazol-2(3H)-ylidene)-1H-pyrrolo[2,3-b]pyridine-4-carboxamide]: the IC50 turned out to be 4040 nM.

`O=C(/N=c1\sc(CO)cn1-c1ccccc1Cl)c1ccnc2[nH]ccc12` [Example 63, (Z)—N-(3-(2-chlorophenyl)-5-(hydroxymethyl)thiazol-2(3H)-ylidene)-1H-pyrrolo[2,3-b]pyridine-4-carboxamide]: the half-maximal inhibitory concentration (IC50) came to 850 nM.

Take `O=C(/N=C1\SCCN1c1c(O)cccc1F)c1c[nH]c2ncccc12` [Example 70]: the IC50 is 0.6 nM.

For `O=C(/N=C1\SCCN1c1ccc(F)cc1O)c1c[nH]c2ncccc12` [Example 72], the IC50 was 1.1 nM.

On to `O=C(/N=C1\SCCN1c1cccc(F)c1O)c1c[nH]c2ncccc12` [Example 73], for which the IC50 was 1.4 nM.

`O=C(/N=C1\SCCN1c1c(O)cccc1Cl)c1c[nH]c2ncccc12` [Example 74, (NZ)—N-[3-(2-chloro-6-hydroxy-phenyl)thiazolidin-2-ylidene]-1H-pyrrolo[2,3-b]pyridine-3-carboxamide]: the IC50 was found to be 1.8 nM.

With `O=C(/N=C1\SCCN1c1cc(F)ccc1O)c1c[nH]c2ncccc12` [Example 75], the IC50 was 1.5 nM.

Turning to `O=C(/N=C1\SCCN1c1ccc[nH]c1=O)c1c[nH]c2ncccc12` [Example 76], the IC50 amounted to 191 nM.

Consider `O=C(/N=C1\SCCN1c1cccc(=O)[nH]1)c1c[nH]c2ncccc12` [Example 77], for which the IC50 was 4820 nM.

On to `O=C(/N=C1\SCCCN1c1cccc(O)c1)c1c[nH]c2ncccc12` [Example 78], for which the IC50 came out at 18 nM.

As for `O=C(/N=C1\SCCN1C1CCCC1O)c1c[nH]c2ncccc12` (stereo not shown) [Example 79, (NZ)—N-[3-(2-hydroxycyclopentyl)thiazolidin-2-ylidene]-1H-pyrrolo[2,3-b]pyridine-3-carboxamide], the IC50 came out at 221 nM.

On to `O=C(/N=C1\SCC(CO)N1c1ccccc1Cl)c1c[nH]c2ncccc12` (stereo not shown) [Example 80], for which the IC50 was 1.6 nM.

`O=C(/N=C1\SCCN1C1CCC(O)C1)c1c[nH]c2ncccc12` (stereo not shown) [Example 81, (Z)—N-(3-(3-hydroxycyclopentyl)thiazolidin-2-ylidene)-1H-pyrrolo[2,3-b]pyridine-3-carboxamide]: the IC50 came to 50 nM.

For the compound `O=C(/N=C1\SCC(CO)N1Cc1ccccc1)c1c[nH]c2ncccc12` (stereo not shown) [Example 82], the IC50 was found to be 17 nM.

For the compound `O=C(/N=c1\sccn1Cc1ccccc1)n1ccc2ncccc21` [Example 86], the IC50 turned out to be 900 nM.

On to `N#Cc1cc2ncccc2n1C(=O)/N=c1\sccn1-c1ccccc1` [Example 87], for which the IC50 worked out at 2140 nM.
